Measurements reported in patent publication US20210338647A1, “Combination of Acetylcholinesterase Inhibitor and 5-HT4 Receptor Agonist As Neuroprotective Agent In the Treatment of Neurodegenerative Diseases” (UNIVERSITE DE CAEN NORMANDIE, priority 2018, published 2021).

Columns and labels:
5XFAD mice [1] = assay: Amyloid plaque number (thioflavin T staining) in brain sections of 5XFAD mice; assay type: in vivo, mouse; settings: 1 mg/kg twice a week for 3 months, versus controls
Description: (§1) 5XFAD mice received chronic treatments with drugs or vehicle according to 2 different protocols. In each experiment, drugs or vehicle solution were administered i.p. twice a week (1 mg/kg). In “Protocol 1”, mice (n=6-7 mice per group) were treated with compounds for two months, from 2 to 4 months of age. In “Protocol 2”, mice (n=7) were treated with compounds for three months, from 1 month to 4 months of age. At the end of each protocol, mice were anesthetized with a mixture of 100 mg/kg ketamine and 10 mg/kg xylazine in saline solution and perfused transcardially with PBS. Brains were quickly isolated on ice, the olfactory bulbs and cerebellum removed and the two hemispheres divided. One hemisphere was frozen on dry ice and stored at −80° C. for biochemical analysis, while the other was post-fixed in 4% PFA for immunohistochemistry (IHC).
Thirty-micrometer-thick sections were cut using a vibratome (Microm HM 650V, Thermo Scientific, Saint Herblain, France) and stored in cryoprotectant medium at −20° C. […]
Images were acquired with an Axiolmager Z1 microscope (Carl Zeiss S.A.S., Marly le Roi, France). […] GFAP expression was quantified using Image J software and results are expressed as area fractions. […]

5XFAD mice [2] = assay: Astrogliosis (GFAP staining) in brain sections of 5XFAD mice; assay type: in vivo, mouse; settings: 1 mg/kg twice a week for 3 months, versus controls
Description: as §1
Thirty-micrometer-thick sections were cut using a vibratome (Microm HM 650V, Thermo Scientific, Saint Herblain, France) and stored in cryoprotectant medium at −20° C. For the labeling of amyloid plaques, free-floating tissue sections of frontal cortex, hippocampus and entorhinal cortex (coordinates from the bregma: frontal cortex=1.98 mm, hippocampus=−1.94 mm, entorhinal cortex=−3.08 mm) were extensively washed in PBS and then incubated in blocking solution (PBS; 3% BSA; 0.1% Triton X-100) for 1 h. Sections were stained with Hoechst dye (1:1000, Life Technologies, Saint Aubin, France) for 15 minutes to detect cell nuclei and then with freshly prepared thioflavin T solution (#T3516-5G, Sigma-Aldrich) (final concentration: 0.01 mg/ml in blocking buffer) for 15 minutes. After washing in 70% ethanol for 5 minutes, samples were mounted on poly-lysine slides with coverslips. For GFAP (glial fibrillary acidic protein) staining, free-floating brain sections were blocked as before and incubated with polyclonal rabbit anti-GFAP (1:1000, Z0334, Dako, Les Ullis, France) at 4° C. overnight. After thioflavin T staining and washing with 70% ethanol, the secondary Alexafluor 594 goat anti-rabbit antibody (1:1000, A11012, Life Technologies) was added for 2 h. PBS washes and mounting were performed as described before.
Images were acquired with an Axiolmager Z1 microscope (Carl Zeiss S.A.S., Marly le Roi, France). Analysis of thioflavin T staining was performed blindly and data are presented as the mean number of particles per mm^2 in two to three tissue sections from the same brain area/animal (Image J software). GFAP expression was quantified using Image J software and results are expressed as area fractions.
28 female 5XFAD mice (C57BL/6J genetic background) were used in this study. Mice received vehicle or compounds (1 mg/kg) i.p., twice a week for three months, from 1 to 4 months of age.

SMILES: CCCCN1CCC(CCC(=O)c2cc(Cl)c(N)cc2OC)CC1 [RS67333, 1-(4-amino-5-chloro-2-methoxy-phenyl)-3-(1-butyl-4-piperidinyl)-1-propanone]
- Amyloid plaque number in hippocampus (5XFAD mice [1]): not significantly different compared to controls
- GFAP staining in frontal cortex (5XFAD mice [2]): not significantly different compared to controls
- GFAP staining in hippocampus (5XFAD mice [2]): not significantly different compared to controls
